Laboratory results: US10358454B2, “Marinopyrrole derivatives and methods of making and using same” (H. LEE MOFFITT CANCER CENTER AND RESEARCH INSTITUTE, INC., priority 2014, dated 2019)
Entries after “also recorded” stand apart in the source; their conditions may differ. Like-named read-outs stand apart in the source and are kept apart here.

What was measured:
Mcl-1/Bim = Mcl-1/Bim (Homo sapiens, UniProt Q07820); experiment: Mcl-1/Bim ELISA (GST-Mcl-1 binding to biotinylated Bim BH3 peptide); settings: for selectivity for Mcl-1 over Bcl-xL (Mcl-1/Bim over Bcl-xL/Bim): ratio of ELISA IC50 values
Description: (§1) ELISAs were performed using a modified version of a previously described procedure (Doi K et al. J. Biol. Chem. 2012, 287, 10224-10235). Briefly, 40 nM of biotinylated Bim BH3 peptide (Biomatik) in SuperBlock blocking buffer (Pierce) was incubated in high-binding capacity streptavidin-coated plates (Pierce) for 2 h. Compounds were diluted in 120 μl of PBS containing 10 nM of GST-Mcl-1 or GST-Bcl-xL in 1.5 mL tubes for 15 min. Wells were washed with wash buffer (PBS containing 0.05% Tween-20) and then 100 μL of the compound/GST-protein mixture was transferred to the wells. The plates were incubated for 2 h, and then the wells were washed with wash buffer. HRP-conjugated anti-GST antibody (Bethyl Laboratories) was diluted 1:2000 in SuperBlock and 100 μL was transferred to each well. The plate was incubated for 1 h, and then the wells were washed with wash buffer followed by PBS. 100 μL of SureBlue TMB Microwell Peroxidase Substrate (VWR) was added to each well and plates were developed for 5-10 min. 100 μL of 1 N HCl was added to each well to stop the reaction and absorbance was read at 450 nm using a μQuant plate reader (Bio-Tek).
(§2) ELISAs were performed using a similar procedure as previously described (Doi K, et al. J. Biol. Chem. 2012, 287, 10224-10235). Briefly, 40 nM of biotinylated Bim BH3 peptide (Biomatik) in SuperBlock blocking buffer (Pierce) was incubated in high-binding capacity streptavidin-coated plates (Pierce) for 2 h. Compounds were diluted in 120 μl of PBS containing 10 nM of GST-Mcl-1 or GST-Bcl-xL in 1.5 mL tubes for 15 min. Wells were washed with wash buffer (PBS containing 0.05% Tween-20) and then 100 μL of the compound/GST-protein mixture was transferred to the wells. The plates were incubated for 2 h, and then wells were washed with wash buffer. HRP-conjugated anti-GST antibody (Bethyl Laboratories) was diluted 1:2000 in SuperBlock and 100 μL was transferred to each well. The plate was incubated for 1 h, and then wells were washed with wash buffer followed by PBS. 100 μL of SureBlue TMB Microwell Peroxidase Substrate (VWR) was added to each well and plates were developed for 5-10 min. 100 μL of 1 N HCl was added to each well to stop the reaction and absorbance was read at 450 nm using μQuant plate reader (Bio-Tek).

Bcl-xL/Bim = Bcl-xL/Bim (Homo sapiens, UniProt Q07817); experiment: Bcl-xL/Bim ELISA (GST-Bcl-xL binding to biotinylated Bim BH3 peptide)
Description: as §1, §2

[1] = tested on: human breast cancer MDA-MB-468 cells; experiment: Western blotting of MDA-MB-468 cells treated with marinopyrrole derivatives (Mcl-1, Bim, caspase 3); type: cell-based; settings: 10 μM for 16 h
Description: The cells were then processed for western blotting according to a previously described methods (Balasis M E et al. Clin. Cancer Res. 2011, 17, 2852-2862). […] However, none of the cyclic marinopyrroles were active in intact cells.
as §1

Solubility = settings: aqueous solubility
[2] = Stability in 1 M NaOH at room temperature, HPLC analysis; settings: for remained intact: after 48 hours
[3] = pKa and log p calculated using ChemAxon Software Version 5.12.3; settings: difference to phenol pKa […]
Description: Both pKa and log p values were calculated using ChemAxon Software Version 5.12.3 (Dixon S L and Jurs P C. J. Comp. Chem. 1993, 14, 1460-1467; Csizmadia F et al. J. Pharm. Sci. 1997, 86, 865-871).

[4] = tested on: Bim/Mcl-1 and Bim/Bcl-xL in MDA-MB-468 cancer cells; experiment: Co-immunoprecipitation and densitometry of Bim/Mcl-1 and Bim/Bcl-xL in treated cells; type: cell-based, human; settings: compared with 1
MDA-MB-468 cells [5] = experiment: Western blots of MDA-MB-468 cells treated with 1 and I-2 (Bcl-2 family proteins, Caspase 3 and PARP cleavage); type: cell-based, human
MDA-MB-468 cells [6] = experiment: MTT assay (anchorage-dependent proliferation); type: cell-based, human; settings: 48 hours, compared with 1
[7] = tested on: A-549 human lung cancer cells; experiment: MTT assay (anchorage-dependent proliferation); type: cell-based; settings: 48 hours, compared with 1
MDA-MB-468 cells [8] = experiment: Soft agar assay (anchorage-independent growth); type: cell-based, human; settings: 21 days, compared with 1
[9] = tested on: A-549 human lung cancer cells; experiment: Soft agar assay (anchorage-independent growth); type: cell-based; settings: 21 days, compared with 1
A-549 xenografts = A-549 xenografts in nude mice; type: in vivo; settings: 4 mpk/day for 14 days
[10] = tested on: cultured human cancer cells; experiment: Induction of apoptosis in cultured human cancer cells; type: cell-based; settings: intact cell studies
Mcl-1 [11] = biological target: T1, Mcl-1 (Homo sapiens, UniProt Q07820); experiment: Fluorescence-quenching (FQ) assay based on intrinsic Trp fluorescence of Mcl-1; type: binding; settings: for Kd: binding isotherms, read-out: Kd (binding constant)
Source text: To investigate direct binding of compounds to Mcl-1, a fluorescence-quenching (FQ) assay based on the intrinsic Trp fluorescence of Mcl-1 was established.
Target sequence in this assay (Q07820 whole entry): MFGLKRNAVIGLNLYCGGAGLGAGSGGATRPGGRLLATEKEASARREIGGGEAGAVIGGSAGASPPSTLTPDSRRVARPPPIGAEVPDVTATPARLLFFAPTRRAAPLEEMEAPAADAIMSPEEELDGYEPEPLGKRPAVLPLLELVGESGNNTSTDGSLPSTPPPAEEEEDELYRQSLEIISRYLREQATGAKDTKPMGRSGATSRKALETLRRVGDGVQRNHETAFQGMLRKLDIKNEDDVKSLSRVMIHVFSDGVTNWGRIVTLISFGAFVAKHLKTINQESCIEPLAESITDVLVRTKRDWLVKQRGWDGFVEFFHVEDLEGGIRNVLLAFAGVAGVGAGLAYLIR

Mcl-1 [12] = biological target: T1, Mcl-1; experiment: 15N-HSQC NMR chemical shift perturbation with docking; type: binding; set-up: MBP (cleaved yes); made in house; host or cells: E. coli BL21(DE3) Codon+; settings: HSQC chemical shift changes
Description: ^15N-HSQC spectra were recorded on ^15N-labelled Mcl-1 at 0.1 mM prepared in 50 mM potassium phosphate solution at pH 6.5, 50 mM NaCl and 1 mM DTT. Titrations up to 100 μM of 1-21 and 1-18 compounds were performed. NMR spectra were acquired at 25° C. on an Inova 600 MHz spectrometer equipped with a cryoprobe and analyzed in CCPNMR (Vranken W F, et al. Proteins. 2005, 59, 687-696).
NMR-guided docking of 1-21 into the X-ray crystal structure of Mcl-1 (PDB ID: 3KJ0) was performed using Glide (Maestro, Schrodinger) (Friesner R A et al. J. Med. Chem. 2004, 47, 1739-1749; Friesner R A, et al. J. Med. Chem. 2006, 49, 6177-6196; Halgren T A, et al. J. Med. Chem. 2004, 47, 1750-1759; Gavathiotis E, et al. Nat. Chem. Biol. 2012, 8, 639-645). The lowest-energy docking pose is consistent with the observed NMR-chemical shift perturbation data. Pymol is used for preparing the highlighted poses.
Structural characterization of I-20 and II-4 was performed using NMR. HSQC spectra were collected at different ratios of compound:Mcl-1. […] The residues that undergo chemical shift changes upon compounds' binding onto the structure of Mcl-1 and the compounds' binding location were mapped (FIG. 6B). An induced fit molecular docking approach guided by the NMR chemical shifts was used to determine the structural models of the compounds bound to Mcl-1 using Glide software (Schrodinger; FIG. 6C). […]
Target sequence in this assay (Q07820 172-327): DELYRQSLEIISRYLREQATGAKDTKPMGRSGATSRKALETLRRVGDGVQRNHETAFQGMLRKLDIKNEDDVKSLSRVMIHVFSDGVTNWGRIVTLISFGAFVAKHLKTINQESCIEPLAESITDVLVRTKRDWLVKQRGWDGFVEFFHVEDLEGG

[13] = Table 2-A, n ≥ 3, read-out: Mcl-1/Bim IC50 (average ± SEM)
[14] = Table 2-B, n ≥ 3, read-out: Mcl-1/Bim IC50 (average ± SEM)
[15] = Table 3-A structure I, Mcl-1 at 10 nM, n ≥ 3, read-out: Mcl-1-Bim IC50 (average ± SEM)
[16] = read-out: IC50 to inhibit the binding of Mcl-1 to Bim
[17] = Table 2-A, n ≥ 3, read-out: Bcl-xL/Bim IC50 (average ± SEM)
[18] = Table 2-B, n ≥ 3 unless specified, read-out: Bcl-xL/Bim IC50 (average ± SEM)
[19] = Table 3-A structure I, Bcl-xL at 10 nM, n ≥ 3, read-out: Bcl-xL-Bim IC50 (average ± SEM)

Chain of Bcl-xL/Bim (Q07817 whole entry): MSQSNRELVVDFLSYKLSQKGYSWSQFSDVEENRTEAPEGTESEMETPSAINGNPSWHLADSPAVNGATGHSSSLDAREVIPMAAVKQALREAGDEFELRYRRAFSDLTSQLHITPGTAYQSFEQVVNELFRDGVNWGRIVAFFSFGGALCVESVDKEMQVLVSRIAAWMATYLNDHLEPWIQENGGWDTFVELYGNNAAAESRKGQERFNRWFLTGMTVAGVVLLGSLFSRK
Chain of Mcl-1/Bim (Q07820 whole entry): as the sequence (Q07820 whole entry) above

| SMILES | IC50 (Mcl-1/Bim; [13]) [µM] | IC50 (Mcl-1/Bim; [14]) [µM] | IC50 (Mcl-1/Bim; [15]) [µM] | selectivity for Mcl-1 over Bcl-xL (Mcl-1/Bim over Bcl-xL/Bim) (Mcl-1/Bim) [fold] | IC50 (Mcl-1/Bim; [16]) [µM] | IC50 (Bcl-xL/Bim; [17]) [µM] | IC50 (Bcl-xL/Bim; [18]) [µM] | IC50 (Bcl-xL/Bim; [19]) [µM] | effect on levels of Mcl-1 and Bim and cleavage of caspase 3 [1] | solubility in words (Solubility) | remained intact [2] [%] | activity against Bcl-xL/Bim in words (Bcl-xL/Bim) | direct binding to Mcl-1 by fluorescence quenching (Mcl-1 [11]) | Kd (Mcl-1 [11]) [µM] | also measured |
| --- | --- | --- | --- | --- | --- | --- | --- | --- | --- | --- | --- | --- | --- | --- | --- |
| O=C(c1ccccc1O)c1[nH]c(Cl)c(Cl)c1-n1c(C(=O)c2ccccc2O)cc(Cl)c1Cl (racemic) [(±)-1, (±)-marinopyrrole A, reference compound] | 8.9 ± 1 | 8.9 ± 1 | 8.9 ± 1 | 1.8 | 8.9 | 16.4 ± 3.3 | 16.4 ± 3.3 | 16.4 ± 3.3 | able to decrease Mcl-1 and Bim and to cleave caspas 3 | poor solubility | 76 |  |  |  | IC50 (Mcl-1/Bim; Table 1, Mcl-1 at 10 nM, n ≥ 3, read-out: Mcl-1-Bim IC50 (average ± SEM)): 8.9 ± 1 µM; selectivity for Mcl-1 over Bcl-xL (Mcl-1/Bim over Bcl-xL/Bim) (Mcl-1/Bim; listed as marinopyrrole A): two fold; IC50 (Bcl-xL/Bim; Table 1, Bcl-xL at 10 nM, n ≥ 3, read-out: Bcl-xL-Bim IC50 (average ± SEM)): 16.4 ± 3.3 µM; IC50 (Bcl-xL/Bim; read-out: IC50 to inhibit Bcl-xL/Bim binding): 16.4 µM; stability in words ([2]; 1 to 48 hours): highly stable; pKa values lower than that of phenol [3]: 1.6-2.2 log units |
| C#Cc1ccc(C(=O)c2[nH]c(Cl)c(Cl)c2-n2c(C(=O)c3ccc(C#C)cc3O)cc(Cl)c2Cl)c(O)c1 [Compound 1-3, (4,4′,5,5′-Tetrachloro-1′H-1,3′-bipyrrole-2,2′-diyl)bis((4-ethynyl-2-hydroxyphenyl)methanone)] |  | 3.9 ± 0.2 | 3.9 ± 0.2 |  | 3.7 |  | 5.6 ± 0.5 | 5.6 ± 0.5 |  |  | 81 | more potent than 1 |  |  | activity against Mcl-1/Bim in words (Mcl-1/Bim): more potent than 1; selectivity profile Mcl-1 vs Bcl-xL in words (Mcl-1/Bim; from Mcl-1/Bim and Bcl-xL/Bim ELISA): dual Mcl-1 and Bcl-XL antagonists; inhibition of binding of Mcl-1 and Bcl-xL to Bim in cells [4]: more potent than 1; effect on Bcl-2 and Bax levels (MDA-MB-468 cells [5]): little effects; effect on Bim level (MDA-MB-468 cells [5]): slightly decreased; decreasing levels of Mcl-1 and Bcl-xL and increasing levels of Bak and Bad (MDA-MB-468 cells [5]; compared with 1): more potent than 1; inducing apoptosis (Caspase 3 and PARP cleavage) (MDA-MB-468 cells [5]; compared with 1): more potent than 1; inhibiting anchorage-dependent proliferation (MTT) (MDA-MB-468 cells [6]): more potent than 1; inhibiting anchorage-dependent proliferation (MTT) [7]: more potent than 1; inhibiting anchorage-independent proliferation (soft agar) (MDA-MB-468 cells [8]): more potent than 1; inhibiting anchorage-independent proliferation (soft agar) [9]: more potent than 1; effect on the body weights of the mice (A-549 xenografts): little effect; increase of tumor volumes from day 1 to day 14 (A-549 xenografts; vehicle-treated mice 160±10%): 45±30%; induction of apoptosis [10]: induced apoptosis |
| O=C(O)Cn1cc(-c2cc(O)c(C(=O)c3[nH]c(Cl)c(Cl)c3-n3c(C(=O)c4cc(Cl)c(-c5cn(CC(=O)O)nn5)cc4O)cc(Cl)c3Cl)cc2Cl)nn1 [Compound 1-19, 2,2′-(4,4′-((4,4′,5,5′-Tetrachloro-1′H-1,3′-bipyrrole-2,2′-dicarbonyl)bis(2-chloro-5-hydroxy-4,1-phenylene))bis(1H-1,2,3-triazole-4,1-diyl))diacetic acid] | 5.2 ± 0.8 |  |  | 9.6 | 5.2 | > 50 |  |  |  |  |  | not active | directly bind to Mcl-1 | 2.5 | IC50 (Mcl-1/Bim; Table 3-B structure II, n ≥ 3, read-out: Mcl-1-Bim IC50 (average ± SEM)): 5.2 ± 0.8 µM; IC50 (Bcl-xL/Bim; Table 3-B structure II, n ≥ 3, read-out: Bcl-xL-Bim IC50 (average ± SEM)): > 50 µM; binding to Mcl-1 by NMR (Mcl-1 [12]; listed as II-4): binding to the BH3 pocket of Mcl-1; also recorded: confirmed binding to Mcl-1 |
| O=C(c1ccc(P(=O)(O)O)cc1O)c1[nH]c(Cl)c(Cl)c1-n1c(C(=O)c2ccc(P(=O)(O)O)cc2O)cc(Cl)c1Cl [Compound I-20, ((4,4′,5,5′-Tetrachloro-1′H-[1,3′-bipyrrole]-2,2′-dicarbonyl)bis(3-hydroxy-4,1-phenylene))diphosphonic acid] |  |  | 10.9 ± 3.1 |  |  |  |  | 27.3 ± 7.2 | little effect on Mcl-1, Bim or caspase 3 | improvement in aqueous solubility |  | less active | directly bind to Mcl-1 | 3.5 | activity against Mcl-1/Bim in words (Mcl-1/Bim; listed as 8a): slightly less potent than 1; also recorded: less active; binding to Mcl-1 by NMR (Mcl-1 [12]): binding to the BH3 pocket of Mcl-1; also recorded: confirmed binding to Mcl-1 |
